Patent US6321750A, “Condom lubricants with zinc salts as anti-viral additives” (priority 1999, dated 2001)
“Also recorded” adds a separate entry of the source. Read-outs that look alike come from different tables or passages of the source.

Columns and labels:
forearm = assay: Irritation test on forearm / skin; type: in vivo, human
Description: Zinc acetate was purchased from Pfaltz and Bauer (Waterbury, Connecticut). About 0.5 grams were mixed with several drops of distilled water at room temperature. […] The aqueous mixture was rubbed into an area about 3 cm in diameter on the forearm of […] and caused no irritation. Subsequently, about 0.5 grams of the salt were dissolved in a few drops of distilled water, then 10 ml K-Y Lubricating Jelly (sold by Johnson and Johnson, New Brunswick, N.J.) was added to form a gel mixture containing about 5% zinc acetate (w/v). This commercially available mixture contains purified water, hydroxyethyl-cellulose as a thickening agent, glycerin as a lubricant, glucono-delta-lactate to prevent crystallization, chlorhexidine gluconate as a preservative, and sodium hydroxide to reduce the acidity.

several cell lines = assay: Zinc toxicity in several cell lines; settings: read-out: concentration at which toxicity began to appear in mild form, all comparable
HIV-1 = assay: High-titer HIV infectivity test (two-step incubation, p24 ELISA); type: cell-based; settings: for HIV infectivity: high-titer stock
Description: The initial set of HIV tests were carried out at Biotech Research Laboratories (Rockville, Md.). The HIV-1 viral isolate and H-9 cell line were originally supplied by Robert Gallo of the NCI.
(§1) In a first set of tests, 20 mg of zinc acetate powder (ZnAc, MW 183.4) was mixed in 1 ml RPMI cell culture medium (Whittaker Corp.). This 2% (w/v) salt mixture contained 7 mg/ml elemental Zn. […] Therefore, a small quantity of HCl was added until the mixture became clear; the pH was about 5.5. The Zn concentration was reduced by half (and the pH was raised somewhat) when an equal volume (1 ml) of cell-free high-titer HIV-1 viral stock was added. The zinc/virus mixture was stirred and incubated for 2 hours at 37° C. (i.e., normal body temperature).
(§2) Following this first incubation step, the zinc/virus mixtures were diluted at 1:10, 1:30, and 1:100 ratios using culture medium, and aliquots were added to equal volumes of culture media containing H-9 lymphocytes that had been pretreated overnight with 2 μg/ml Polybreen. The lymphocyte mixtures were incubated for three hours at 37° C.; zinc concentrations during this step were 180, 60, and 18 μg/ml for the 1:10, 1:30, and 1:100 dilutions.
The cell aliquots were then washed twice, using culture medium, to remove free p24 proteins that are present in the initial viral stock. Such proteins will skew ELISA readings if not removed by washing. Cells were then resuspended in fresh medium containing 10% fetal calf serum (FCS) and cultured for 20 days. During this period, each tube was periodically sampled by hand-mixing the tube, withdrawing 100 μl of liquid from the top, and testing the sample for p24 antigens using ELISA assays.
A positive control was used at each dilution. Viral aliquots not treated with zinc were identically diluted, mixed with lymphocytes, cultured, and tested. Negative controls were also run, in which H-9 cells were plated and grown in the absence of any virus or zinc; these provided background levels that vary slightly from day to day, depending on factors such as spectrophotometer calibrations and rinsing conditions.

[1] = cited from earlier work
[2] = tested on: genitals (both persons, during intercourse); assay: Irritation test of lubricant during intercourse / human volunteers; type: in vivo
Description: Subsequently, the gel formulation was applied topically and used as a sexual lubricant during intercourse. Both people wiped off the excess with a tissue after intercourse, but neither person showered or washed off the lubricant until the following day. It caused no irritation to either person.

[3] = Acidity tests: pH of 5% w/v zinc salt solutions; settings: 5% w/v in distilled deionized water
vagina = assay: Irritation test in shallow region of the vagina (volunteer); type: in vivo, human
Description: In all examples, the test subjects were a monogamous married couple, free of genital herpes and all other known sexually transmitted viruses.

HIV = HIV precipitation test; settings: 2% ZnAc with equal volume of undiluted viral stock
Description: Precipitation tests using HIV were also carried out Biotech Research Laboratories, using 2% ZnAc which was mixed with an equal volume of undiluted viral stock, incubated for 24 hours, and centrifuged at 1500 rpm in a tabletop centrifuge for 5 minutes. The supernatant was sampled ([…]) and serially diluted by medium, at 1:10 followed by 2× dilutions (1:20, 1:40, 1:80, etc) to a maximum dilution of 1:10240. Each dilution was analyzed spectrophotometrically to determine the concentration of viruses suspended in solution. After sampling, each tube was hand-mixed and incubated for 24 hours. The solution near the top of the tube was sampled again, serially diluted, and tested using the ELISA assay. The tube was hand-mixed again, incubated for three more days, and sampled again to obtain Day 5 values.

H-9 lymphocytes = assay: Toxicity to lymphocytes; type: cell-based
Description: as §1, §2
A 2 ml aliquot from each dilution was mixed with an equal volume of 3% ZnAc dissolved in sterile distilled water; after mixing, the zinc concentration was 5.3 mg/ml Zn. These mixtures were incubated for 2 hours, then diluted with culture medium at 1:30, 1:100, and 1:1000 to reduce the toxicity of the zinc to lymphocytes. Four ml of lymphocytes were mixed with 4 ml of each zinc/virus mixture. The zinc/virus/cell mixtures were incubated at 37° C. for 3 hours; zinc concentrations were 88, 27, and 2.7 μg/ml in the 30, 100, and 1000 dilutions.

Substance: Zinc acetate
- irritation, forearm (forearm; about 0.5 g in several drops of distilled water): no irritation
- burning and irritation to the skin (forearm; dissolved in water alone): substantial amount of burning and irritation to the skin
- MCC (several cell lines): ~100 mM
- p24 concentrations (HIV-1; 1% zinc acetate 2 h, diluted 1:30 (60 μg/ml Zn), 20 days culture): indistinguishable from background levels
- HIV infectivity (HIV-1; 1% zinc acetate 2 h, diluted 1:30 (60 μg/ml Zn)): completely eliminated
- HIV infectivity (HIV-1; 1% zinc acetate 2 h, diluted 1:30 (60 μg/ml Zn), listed as ZnAc): completely abolished viral infectivity
- HIV infectivity (HIV-1; 1% zinc acetate 2 h, diluted 1:100 (18 μg/ml Zn)): reduced and delayed
- HIV infectivity (HIV-1; 1% zinc acetate 2 h, diluted 1:100 (18 μg/ml Zn), listed as ZnAc): suppressed and retarded HIV infectivity
- inhibition of HIV particles (summary of Examples 8-10) (HIV-1; two-step incubation assay, FIGS. 1-4): inhibited or entirely inactivated the HIV particles
- ionization rate ([1]; in aqueous solution): ≤ 30%
- Reported pK values ([1]; in water, values below 2 refer to release of a single carboxy anion): 1.03
- irritation during intercourse ([2]; gel in K-Y Lubricating Jelly, about 5% w/v): no irritation; also recorded: Neither of these salts caused any irritation
- irritation of gel / genital lubricant formulations ([2]; in gel or genital lubricant, human volunteers): did not cause any irritation
- pH of solution (rounded) [3]: about 6.2
- pH of solution ([3]; 0.05 subtracted from meter reading, approximately accurate): 6.27
- irritation, vagina (vagina; dissolved in (distilled) water alone): unpleasant tingling or mild burning sensation; also recorded: vaginal irritation
- irritation, vagina / female genitals (vagina; gel in K-Y Lubricating Jelly, about 5% w/v, passive test): no tingling, burning, or other unpleasant sensation
- virus precipitation (HIV): substantial precipitation of the virus
- solubility in cell culture medium / water (20 mg in 1 ml RPMI culture medium containing protein): generated a precipitate in the culture medium
- solubility in water (general statement): highly soluble in water
- solubility in water (salt in a few drops of distilled water, room temperature): dissolved completely
- cell mortality (H-9 lymphocytes; 88 μg/ml Zn, 3 h): significant cell mortality
- lymphocyte mortality (H-9 lymphocytes; 1:10 dilution, 180 μg/ml Zn, 3 h): substantial mortality to the lymphocytes
- lymphocyte growth (H-9 lymphocytes; 1:30 dilution, 60 μg/ml Zn, visual observation): retarded cell growth during the first few days
- cell mortality (H-9 lymphocytes; lower levels (27 and 2.7 μg/ml Zn), 3 h): no cell mortality
